The text below walks through data of patent publication US20240148821A1, “PHARMACEUTICAL USE OF CYCLIC PEPTIDE COMPOUND” (CHUGAI SEIYAKU KABUSHIKI KAISHA, priority 2021, published 2024).

Numbered stars: 1 amine (or outer) side, 2 acyl side, 3 side chain; on linkers, the order of the positions; unused ones are H or OH. Bridge positions count the residues as written; N and C are the ends. Square brackets hold non-standard residues; d marks the D form. Peptide text beside a SMILES is read from it. * marks the point of attachment. hPhe(3-Cl-4-CF3) = N[C@@H](CCc1ccc(C(F)(F)F)c(Cl)c1)C(=O)O; hPhe(3-F,4-CF3) = N[C@@H](CCc1ccc(C(F)(F)F)c(F)c1)C(=O)O; hPhe(4-CF3) = N[C@@H](CCc1ccc(C(F)(F)F)cc1)C(=O)O; NMePhe(4-Cl) = CN[C@@H](Cc1ccc(Cl)cc1)C(=O)O; NMeNle(6-CHF2) = CN[C@@H](CCCCC(F)F)C(=O)O; NMePhe(3-F) = CN[C@@H](Cc1cccc(F)c1)C(=O)O; NMedβ3hAla = C[C@H](CC(=O)[*:2])N(C)[*:1]; NMeGly(cPent) = CN[C@H](C(=O)O)C1CCCC1; Phe(3-I) = N[C@@H](Cc1cccc(I)c1)C(=O)O; NMe3Pal = CN[C@@H](Cc1cccnc1)C(=O)O; NMeY = CN[C@@H](Cc1ccc(O)cc1)C(=O)O; NMeCha = CN[C@@H](CC1CCCCC1)C(=O)O; NMeChg = CN[C@H](C(=O)O)C1CCCCC1; NMeF = CN[C@@H](Cc1ccccc1)C(=O)O; NMeD = CN[C@@H](CC(=O)O)C(=O)O; NMeL = CN[C@@H](CC(C)C)C(=O)O; NMeV = CN[C@H](C(=O)O)C(C)C; d(β3hA) = C[C@@H](N)CC(=O)O; NMeS = CN[C@@H](CO)C(=O)O; NMeA = CN[C@@H](C)C(=O)O; NMeAib = CNC(C)(C)C(=O)O; Piperidide = C1CCN(*)CC1; Pra = C#CC[C@H](N)C(=O)O; Pyrrolidide = C1CCN(*)C1; dNMeA = CN[C@H](C)C(=O)O; Ac5c = NC1(C(=O)O)CCCC1; Aze = O=C(O)[C@@H]1CCN1; Ac3c = NC1(C(=O)O)CC1; Aib = CC(C)(N)C(=O)O; βAla = NCCC(=O)O; CF3 = FC(F)(F)*; Sar = CNCC(=O)O

For the assay, the system named is Human pancreatic cancer cell line AsPC-1 (G12D mutation Kras). Description: AsPC-1 cell growth inhibition (AsPC-1 CGI). It is filed as cell-based. To be noted: read-out: AsPC-1 cell growth inhibition, 50% growth inhibitory concentration (IC50 value); 96 hours, CellTiter-Glo, values classified in ranges.
Protocol: Test compounds were serially dilated with dimethyl sulfoxide, and 200 nL was then dispensed to a U-bottom 96-well plate using Labcyte Echo. […] The cell suspension was dispensed to a. plate containing a test compound at 100 μL per well and incubated at 37° C. in a 5% carbon dioxide gas incubator. 96 hours later, 80 μL of CellTiter-Glo (Promega) was added to each well and fluorescence was measured.
For the compound `CC[C@H](C)[C@@H]1NC(=O)[C@H](CC(C)C)N(C)C(=O)C[C@@H](C)N(C)C(=O)[C@H](C(C)C)N(C)C(=O)C2(CC2)NC(=O)[C@@H]2CCCN2C(=O)[C@H](CCc2ccc(C(F)(F)F)c(Cl)c2)NC(=O)CN(C)C(=O)[C@H](CC2CCCCC2)N(C)C(=O)CN(C)C(=O)CN(C)C1=O` [Compound 268] (cyclo([Ac3c][NMeV][NMedβ3hAla][NMeL]I[Sar][Sar][NMeCha][Sar][hPhe(3-Cl-4-CF3)]P)), the IC50 was > 500 nM.

As for `CC[C@H](C)[C@@H]1NC(=O)[C@H](COC)N(C)C(=O)C[C@@H](C(=O)N2CCCCC2)N(C)C(=O)[C@H](C(C)C)N(C)C(=O)C2(CCCC2)NC(=O)[C@@H]2CCCN2C(=O)[C@H](CCc2ccc(C(F)(F)F)c(Cl)c2)NC(=O)CN(C)C(=O)[C@H](CC2CCCCC2)N(C)C(=O)[C@@H]2CCN2C(=O)[C@H](C)N(C)C1=O` [Compound 636] ([NMeS](Me)I[NMeA][Aze][NMeCha][Sar][hPhe(3-Cl-4-CF3)]P[Ac5c][NMeV][NMeD]-Piperidide; lactam N-11), the IC50 is > 500 nM.

As to `CC[C@H](C)[C@@H]1NC(=O)CCNC(=O)[C@H](Cc2cccc(F)c2)N(C)C(=O)[C@H](C2CCCCC2)N(C)C(=O)C2(CCCC2)NC(=O)[C@@H]2CCCN2C(=O)[C@H](CCc2ccc(C(F)(F)F)c(Cl)c2)NC(=O)CN(C)C(=O)[C@H](CC2CCCCC2)N(C)C(=O)CN(C)C(=O)CN(C)C1=O` [Compound 237] (cyclo([Ac5c][NMeChg][NMePhe(3-F)][βAla]I[Sar][Sar][NMeCha][Sar][hPhe(3-Cl-4-CF3)]P)), the IC50 was > 500 nM.

Turning to `C#CC[C@@H]1NC(=O)[C@H](Cc2cccc(I)c2)NC(=O)CN(C)C(=O)[C@H](Cc2ccc(OC(F)(F)F)cc2)N(C)C(=O)[C@@H]2CCN2C(=O)CN(C)C(=O)[C@H]([C@@H](C)CC)NC(=O)[C@H](CC(C)C)N(C)C(=O)C[C@@H](C(=O)N2CCCCC2)N(C)C(=O)[C@H](CC(C)C)NC(=O)C(C)(C)N(C)C1=O` [Compound 1298] ([NMeL]I[Sar][Aze][NMeY](CF3)[Sar][Phe(3-I)][Pra][NMeAib]L[NMeD]-Piperidide; lactam N-11), the IC50 is > 500 nM.

Take `CC[C@H](C)[C@@H]1NC(=O)[C@H](C)N(C)C(=O)C[C@@H](C)NC(=O)[C@H](C(C)C)N(C)C(=O)[C@H](Cc2ccccc2)N(C)C(=O)[C@H](CC(C)C)N(C)C(=O)[C@H](CCc2ccc(C(F)(F)F)cc2)NC(=O)CN(C)C(=O)[C@H](Cc2ccc(Cl)cc2)N(C)C(=O)CN(C)C(=O)[C@@H]2CCN2C1=O` [Compound 71] (cyclo([Aze][Sar][NMePhe(4-Cl)][Sar][hPhe(4-CF3)][NMeL][NMeF][NMeV][d(β3hA)][NMeA]I)): the IC50 was > 500 nM.

Regarding `CC[C@H](C)[C@@H]1NC(=O)[C@H](C)N(C)C(=O)C[C@@H](C(=O)N2CCCCC2)N(C)C(=O)[C@H](C(C)C)N(C)C(=O)C2(CCCC2)NC(=O)[C@@H]2CCCN2C(=O)[C@H](CCc2ccc(C(F)(F)F)c(Cl)c2)NC(=O)[C@@H](C)N(C)C(=O)[C@H](Cc2ccccc2)N(C)C(=O)[C@@H]2CCCN2C(=O)CN(C)C1=O` [Compound 1806] ([NMeA]I[Sar]P[NMeF][dNMeA][hPhe(3-Cl-4-CF3)]P[Ac5c][NMeV][NMeD]-Piperidide; lactam N-11), the IC50 was > 500 nM.

For `CC[C@H](C)[C@@H]1NC(=O)[C@H](C)N(C)C(=O)C[C@@H](C)NC(=O)[C@H](C2CCCC2)N(C)C(=O)C2(CCCC2)NC(=O)[C@@H]2CCCN2C(=O)[C@H](CCc2ccc(C(F)(F)F)c(Cl)c2)NC(=O)[C@@H](C)N(C)C(=O)[C@H](C(C)C)N(C)C(=O)CN(C)C(=O)CN(C)C1=O` [Compound 109] (cyclo([Ac5c][NMeGly(cPent)][d(β3hA)][NMeA]I[Sar][Sar][NMeV][dNMeA][hPhe(3-Cl-4-CF3)]P)), the IC50 is > 500 nM.

As to `CC[C@H](C)[C@@H]1NC(=O)[C@H](C)N(C)C(=O)C[C@@H](C(=O)N2CCCC2)N(C)C(=O)[C@H](C2CCCCC2)N(C)C(=O)C2(CCCC2)NC(=O)[C@H](Cc2cccnc2)N(C)C(=O)[C@H](CCc2ccc(C(F)(F)F)c(Cl)c2)NC(=O)CN(C)C(=O)[C@H](CC2CCCCC2)N(C)C(=O)CN(C)C(=O)CN(C)C1=O` [Compound 1834] ([NMeA]I[Sar][Sar][NMeCha][Sar][hPhe(3-Cl-4-CF3)][NMe3Pal][Ac5c][NMeChg][NMeD]-Pyrrolidide; lactam N-11), the IC50 is > 500 nM.

Turning to `CC[C@H](C)[C@@H]1NC(=O)[C@H](CC(C)C)N(C)C(=O)C[C@@H](C(=O)N2CCCC2)NC(=O)[C@H](CC(C)C)N(C)C(=O)C(C)(C)NC(=O)[C@H](CC(C)C)N(C)C(=O)[C@H](CCc2ccc(C(F)(F)F)c(F)c2)NC(=O)CN(C)C(=O)[C@H](CCCCC(F)F)N(C)C(=O)CN(C)C(=O)CN(C)C1=O` [Compound 1455] ([NMeL]I[Sar][Sar][NMeNle(6-CHF2)][Sar][hPhe(3-F,4-CF3)][NMeL][Aib][NMeL]D-Pyrrolidide; lactam N-11), the IC50 is > 500 nM.

As for `CC[C@H](C)[C@@H]1NC(=O)[C@H](C)N(C)C(=O)C[C@@H](C(=O)N2CCCC2)N(C)C(=O)[C@H](CC(C)C)NC(=O)[C@H](Cc2ccccc2)N(C)C(=O)[C@H](C)NC(=O)[C@H](Cc2cccc(I)c2)NC(=O)CN(C)C(=O)[C@H](Cc2ccc(OC)cc2)N(C)C(=O)[C@@H]2CCN2C(=O)[C@H](C)N(C)C1=O` [Compound 604] ([NMeA]I[NMeA][Aze][NMeY](Me)[Sar][Phe(3-I)]A[NMeF]L[NMeD]-Pyrrolidide; lactam N-11), the IC50 was > 500 nM.
